For data set [1], the target named is T1, VvSTO6 (Vitis vinifera, UniProt A0A0S3QPS9).
T1 construct: gene CYP71BE10
T1 sequence (A0A0S3QPS9 1-505): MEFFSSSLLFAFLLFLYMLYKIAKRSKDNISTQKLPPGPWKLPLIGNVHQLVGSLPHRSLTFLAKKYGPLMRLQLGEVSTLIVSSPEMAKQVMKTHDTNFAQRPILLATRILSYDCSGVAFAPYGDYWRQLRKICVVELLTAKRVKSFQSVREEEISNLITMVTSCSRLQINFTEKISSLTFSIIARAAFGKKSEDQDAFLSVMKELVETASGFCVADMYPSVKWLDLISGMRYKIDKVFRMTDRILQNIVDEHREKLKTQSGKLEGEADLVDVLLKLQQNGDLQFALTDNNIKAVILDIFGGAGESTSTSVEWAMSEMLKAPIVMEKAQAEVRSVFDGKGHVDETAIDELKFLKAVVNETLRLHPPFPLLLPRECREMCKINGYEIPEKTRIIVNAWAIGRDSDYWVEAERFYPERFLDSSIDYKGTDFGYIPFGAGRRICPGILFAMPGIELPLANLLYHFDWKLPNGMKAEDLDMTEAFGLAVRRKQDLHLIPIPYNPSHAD
The data set can be described thus: GC-MS of reaction products, recombinant yeast microsomes. The note with it: 100 μM substrate, 1 mM NADPH, 50 mM Tris-HCl pH 7.5, 30 °C, 2 h; unidentified products presumed mono-hydroxylated sesquiterpenes. It is filed as biochemical.

Data set [2] addresses T2, VvSTO4 (Vitis vinifera, UniProt A0A0S3QPU4).
T2 construct: gene CYP71BE1
T2 sequence (A0A0S3QPU4 1-504): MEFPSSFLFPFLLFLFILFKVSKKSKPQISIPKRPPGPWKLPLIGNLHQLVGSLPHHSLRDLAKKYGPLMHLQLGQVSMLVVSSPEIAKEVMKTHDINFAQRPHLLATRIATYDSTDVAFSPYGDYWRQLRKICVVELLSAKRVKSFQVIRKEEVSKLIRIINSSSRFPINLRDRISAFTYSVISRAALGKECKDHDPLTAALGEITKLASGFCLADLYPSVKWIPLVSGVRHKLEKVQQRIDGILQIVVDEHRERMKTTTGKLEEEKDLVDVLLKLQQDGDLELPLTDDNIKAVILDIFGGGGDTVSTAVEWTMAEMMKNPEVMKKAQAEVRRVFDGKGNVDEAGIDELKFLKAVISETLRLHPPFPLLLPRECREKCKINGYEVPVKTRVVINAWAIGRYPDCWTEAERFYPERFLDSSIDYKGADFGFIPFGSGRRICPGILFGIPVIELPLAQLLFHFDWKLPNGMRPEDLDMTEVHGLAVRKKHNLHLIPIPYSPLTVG
The description is as above. It counts as biochemical. The note with it: 100 μM substrate, 1 mM NADPH, 50 mM Tris-HCl pH 7.5, 30 °C, 2 h; unidentified products presumed mono-hydroxylated sesquiterpenes.

Substrate in data set [3]: C=C(C)[C@@H]1CCC2=CCC[C@@H](C)[C@]2(C)C1
The data set is described as follows: cells, lysate or membranes. The following applies: 1 mM NADPH, 50 mM Tris-HCl pH 7.5, 30 °C, 30 min, 2–100 μM substrate.

Substrate in data set [4]: C=C(C)[C@@H]1CC[C@H](C)C2=C(C1)[C@@H](C)CC2
The data set is described as follows: GC-MS (SBSE) of (−)-rotundone formation, Hanes-Woolf plot, recombinant yeast microsomes. It counts as biochemical, Vitis vinifera. The note with it: 1 mM NADPH, 50 mM Tris-HCl pH 7.5, 30 °C, 30 min, 2.6–130 μM substrate.

The term Km denotes the substrate concentration at which the rate is half of its maximum.

Regarding `C=C(C)[C@@H]1CC[C@H](C)C2=C(C1)[C@@H](C)CC2` [α-guaiene], the “GC-MS of reaction products, recombinant yeast microsomes” value in data set [1] is “VvSTO4 and VvSTO6 produced several reaction products with α-guaiene as a substrate”; in data set [2] it was “VvSTO4 and VvSTO6 produced several reaction products with α-guaiene as a substrate”.

B1: VvSTO2 (Vitis vinifera) (protein)
chain: MELQFSFFPILCTFLLFIYLLKRLGKPSRTNHPAPKLPPGPWKLPIIGNMHQLVGSLPHRSLRSLAKKHGPLMHLQLGEVSAIVVSSREMAKEVMKTHDIIFSQRPCILAASIVSYDCTDIAFAPYGGYWRQIRKISVLELLSAKRVQSFRSVREEEVLNLVRSVSLQEGVLINLTKSIFSLTFSIISRTAFGKKCKDQEAFSVTLDKFADSAGGFTIADVFPSIKLLHVVSGMRRKLEKVHKKLDRILGNIINEHKARSAAKETCEAEVDDDLVDVLLKVQKQGDLEFPLTMDNIKAVLLDLFVAGTETSSTAVEWAMAEMLKNPRVMAKAQAEVRDIFSRKGNADETVVRELKFLKLVIKETLRLHPPVPLLIPRESRERCAINGYEIPVKTRVIINAWAIARDPKYWTDAESFNPERFLDSSIDYQGTNFEYIPFGAGRRMCPGILFGMANVELALAQLLYHFDWKLPNGARHEELDMTEGFRTSTKRKQDLYLIPITYRPLPVE
For B1, the Km in data set [3] is 35 µM; in data set [4], 30 µM.
